pIC50: −log10 of the molar value. In brackets after ≈: the same amount, converted by molar mass. Where two headings read alike, the source gives them in different places.
How the values were obtained:
[1] = Structure-activity remarks on potency of PHY analogues (test not named); settings: relative to PHY-34 type acetal
HT-29 cells = assay: Cytotoxicity / antiproliferative activity against HT-29 cells; format: cell-based; settings: for pIC50: HT-29 cells, antiproliferative activity
Text: The cytotoxicity of the compounds in FIG. 1 was screened against HT-29 cells by a previously reported procedure (Ren Y et al. J. Nat. Prod 2011, 74, 1117-1125). A summary of the results is described in Table 1.

[2] = Solubility, plate reader-based absorbance assay; format: physicochemical
Text: A series of compounds were synthesized to improve their water solubility. In particular, phyllanthusmin derivatives including an arabinose derivative with a free C2 hydroxy group, have been explored to produce phosphate, succinate, and amino acid conjugates. In addition PHY-25 and PHY-30 have also been synthesized to contain similar alcohol functionality that can ultimately be utilized to improve water solubility. PHY-28 and PHY-29 containing a glucosamine moiety were also synthesized for improved water solubility. The water solubility of these and other PHY derivatives was assessed (Table 2) to establish a baseline of solubility in a series of 4 solutions. This was accomplished using a plate reader-based absorbance assay.
(§1) The solubility, maximum tolerated dose, and pharmacokinetics of the phyllanthusmins, facilitating the in vivo studies with PHY-34, were also determined. The solubility of the compounds were assessed in DMSO, PEG300, HPβCD, and PBS. The stability of PHY-34 was assessed in a formulation comprising PEG300 and saline at a 1:1 volume ratio. The solution was prepared at a concentration of 7 mg/ml. A plate reader-based absorbance assay or LC-MS/MS was used. Table 4 summarizes the solubility measurements. FIG. 5 and Table 5 summarize the stability measurements. FIGS. 6A and 6B show the concentration-time profile of PHY-34 in mouse plasma via different administration routes

[3] = tested on: OVCAR3 ovarian cancer cell line; assay: IC50 in ovarian cancer cell line OVCAR3; format: cell-based; settings: OVCAR3
Description: (§2) The compounds shown in FIG. 2 were tested against two different ovarian cancer cell lines (xenograft mouse model OVCAR3 and OVCAR8 ovarian cancer cell lines). […] A summary of the test data is shown in FIGS. 3A, 3B, and 4 and Table 3. A comparison of the IC50 values of the compounds in FIG. 2 in two of the ovarian cancer cell lines (OVCAR3 and OVCAR8) reveal subtle differences in activity.

[4] = tested on: OVCAR8 ovarian cancer cell line; assay: IC50 in ovarian cancer cell line OVCAR8; format: cell-based; settings: OVCAR8
Description: as §2

mice = assay: Toxicity and maximum tolerated dose in mice by IV, IP or PO route; format: in vivo; settings: for MTD (maximum tolerated dose) / Toxicity (survival): mice
Description: To determine toxicity, PHY-34 was administered to mice by the bolus intravenous (IV), bolus intraperitoneal (IP), or oral (PO) route to the assigned animals.

Hollow fiber assay = assay: Hollow fiber assay; design: species or system mice; settings: mouse
Description: Hollow fiber assay, IVIS imaging, tubulin inhibition, autophagy, and tumor burden were determined in mice exposed to various arylnaphthalene ligans.

[5] = Stability of PHY-34 in PEG300/saline formulation; format: physicochemical; settings: for Stability of PHY-34 / Stability of PHY-34, second value column: PEG300:saline 1:1, 7 mg/ml
Description: as §1

[6] = mouse, in vivo
Description: as §1

[7] = tested on: numerous other cell lines; assay: In vitro activity in numerous other cell lines; format: cell-based

With COc1cc2c(OC3OC4COC(C)OC4C(OC)C3OC)c3c(c(-c4ccc5c(c4)OCO5)c2cc1OC)C(=O)OC3 [PHY-33, 7-O-(4,6-O-ethylidene-2,3-di-O-methyl-β-D-galactopyranosyl)-diphyllin] the “effect of acetal variation on potency (in words)” value (“effect of acetal variation” for short) [1] was “loss of potency”.

COc1cc2c(OC3OCC4OC(C)(C)OC4C3OC)c3c(c(-c4ccc5c(c4)OCO5)c2cc1OC)C(=O)OC3 (stereo not drawn) [PHY-31] showed a pIC50 (HT-29 cells) of 8.28.

In the case of COc1cc2c(O[C@@H]3OC[C@H](OC(C)=O)[C@H](OC(C)=O)[C@H]3OC(C)=O)c3c(c(-c4ccc5c(c4)OCO5)c2cc1OC)C(=O)OC3 [PHY-7, 7-O-((2,3,4-tri-O-acetyl)-α-L-arabinopyranosyl) diphyllin], the “Solubility in 10% Cremaphor EL/PBS” value [2] was 7400 µg/mL (≈ 11.6 mM), the “Solubility in DMSO” value [2] was 112000 µg/mL (≈ 175 mM) and the “Solubility in PBS” value [2] was 140 µg/mL (≈ 0.219 mM). The “Solubility in PEG300” value [2] was 5700 µg/mL (≈ 8.93 mM).

Compound COc1cc2c(OC3OCC4OC(C)(C)OC4C3O)c3c(c(-c4ccc5c(c4)OCO5)c2cc1OC)C(=O)OC3 (stereo not drawn) [PHY-30] has a pIC50 [3] of 7.94, a pIC50 [4] of 7.93 and a pIC50 (HT-29 cells) of 7.97.

In the case of phyllanthusmins D [PHY-1], the pIC50 [3] was 4.96, the pIC50 [4] was 7.30 and the “Solubility in 10% Cremaphor EL/PBS” value ([2]; Table 2) was 8400 µg/mL. For the same compound, the “Solubility in DMSO” value ([2]; Table 2) was 97000 µg/mL, the “Solubility in PBS” value ([2]; Table 2) was 120 µg/mL and the “Solubility in PEG300” value ([2]; Table 2) was 33000 µg/mL.

For COc1cc2c(OC3OC4COC(C)OC4C(O)C3O)c3c(c(-c4ccc5c(c4)OCO5)c2cc1OC)C(=O)OC3 [PHY-32, 7-O-(4,6-O-ethylidene-β-D-galactopyranosyl)-diphyllin], the “effect of acetal variation” value [1] was “loss of potency”.

In the case of COc1cc2c(OC3OC(CO)C4OC(C)(C)OC4C3O)c3c(c(-c4ccc5c(c4)OCO5)c2cc1OC)C(=O)OC3 (stereo not drawn) [PHY-34], the pIC50 [3] was 8.40, the “potency in ovarian cancer cell lines (in words)” value [3] was “highest potency” and the “MTD (maximum tolerated dose)” value (mice; IP) was 1.8 mpk. The “Toxicity (survival)” value (mice; IP, 0.6 mpk) was “all 3 alive”, the “Toxicity (survival)” value (mice; IP, 1.8 mpk) was “all 5 alive” and the “Toxicity (survival)” value (mice; IP, 3 mpk, within 0.5) was “all 3 died within 0.5”. The “Toxicity (survival)” value (mice; IP, 6 mpk, within 0.5 hour) was “all 5 died within 0.5”, the “MTD (maximum tolerated dose)” value (mice; IV) was 0.6 mpk and the “Toxicity (survival)” value (mice; IV, 0.3 mpk) was “all 5 alive”. For the same compound, the “Toxicity (survival)” value (mice; IV, 0.6 mpk) was “all 5 alive”, the “Toxicity (survival)” value (mice; IV, 1 mpk, within 0.5 hour) was 1 out of 5 died within and the “Toxicity (survival)” value (mice; IV, 3 mpk, within 5 minutes) was “all 5 died within 5”. The “MTD (maximum tolerated dose)” value (mice; PO) was greater than 30 mpk, the “Toxicity (survival)” value (mice; PO, 30 mpk) was “all 5 alive” and the “toxicity on oral dosing (in words)” value (mice; oral dosing, up to 30 mpk) was “no toxicity”. For the same compound, the “efficacy in vivo in hollow fiber assay (in words)” value (Hollow fiber assay) was “demonstrated efficacy”, the pIC50 [4] was 8.39 and the “potency in ovarian cancer cell lines (in words)” value [4] was “highest potency”. The “Stability of PHY-34” value ([5]; 4° C., 1 week) was 86, the “Stability of PHY-34” value ([5]; 4° C., 1 day) was 95 and the “Stability of PHY-34, second value column” value ([5]; 4° C., 1 day) was 77. For the same compound, the “Stability of PHY-34” value ([5]; RT, 0 hr) was 100, the “Stability of PHY-34, second value column” value ([5]; RT, 0 hr) was 100 and the “Stability of PHY-34” value ([5]; RT, 6 hr) was 87. For the same compound, the “Stability of PHY-34, second value column” value ([5]; RT, 6 hr) was 82, the “Stability of PHY-34” value ([5]; −20° C., 1 week) was 87 and the “Stability of PHY-34, second value column” value ([5]; −20° C., 1 week) was 77. The “Stability of PHY-34” value ([5]; −20° C., 1 day) was 90, the “Stability of PHY-34, second value column” value ([5]; −20° C., 1 day) was 82 and the “Stability of PHY-34” value ([5]; −80° C., 1 week) was 86. For the same compound, the “Stability of PHY-34, second value column” value ([5]; −80° C., 1 week) was 81, the “Stability of PHY-34” value ([5]; −80° C., 1 day) was 93 and the “Stability of PHY-34, second value column” value ([5]; −80° C., 1 day) was 80. The “stability of PHY-34 solution upon storage (in words)” value ([5]; storage for one week at 4° C. to −80° C.) was “stable (no significant degradation)”, the “Solubility in 30% HPβCD” value [2] was 1700 µg/mL (≈ 2.92 mM) and the “Solubility in DMSO” value [2] was 114400 µg/mL (≈ 196 mM). The “Solubility in PBS” value [2] was 30 µg/mL (≈ 0.0515 mM), the “Solubility in PEG300” value [2] was 27600 µg/mL (≈ 47.4 mM) and the “AUC on oral dosing (in words)” value [6] was “reasonable AUCs”. For the same compound, the “activity in numerous other cell lines (in words)” value [7] was “single digit nanomolar” and the “activity against HT-29 cells (in words)” value (HT-29 cells; in vitro) was “sub-nanomolar”.

For C=CCOc1c2c(c(-c3ccc4c(c3)OCO4)c3cc(OC)c(OC)cc13)C(=O)OC2 [PHY-18], the pIC50 (HT-29 cells) was 6.24.

With COc1cc2c(O[C@@H]3O[C@H](CO)[C@@H](O)[C@H](O)[C@H]3NC(C)=O)c3c(c(-c4ccc5c(c4)OCO5)c2cc1OC)C(=O)OC3 [PHY-29] the pIC50 (HT-29 cells) was 4.72.

For phyllanthusmins C [PHY-15], the “Solubility in 10% Cremaphor EL/PBS” value [2] was 10000 µg/mL, the “Solubility in DMSO” value [2] was 75000 µg/mL and the “Solubility in PBS” value [2] was 200 µg/mL. For the same compound, the “Solubility in PEG300” value [2] was 14000 µg/mL.

COc1cc2c(OC3OC(CO)C(OC)C(OC)C3OC)c3c(c(-c4ccc5c(c4)OCO5)c2cc1OC)C(=O)OC3 (stereo not drawn) [PHY-25] showed a pIC50 [3] of 5.82, a pIC50 [4] of 7.98 and a pIC50 (HT-29 cells) of 8.77.

For COc1cc2c(OC3OC(CO)C4OC5(CCCC5)OC4C3O)c3c(c(-c4ccc5c(c4)OCO5)c2cc1OC)C(=O)OC3 (stereo not drawn) [PHY-43], the “effect of acetal variation” value [1] was “well tolerated”, the pIC50 [3] was 6.93 and the pIC50 [4] was 8.61.

With COc1cc2c(OC3OC(CO)C4OC5(CCCCC5)OC4C3O)c3c(c(-c4ccc5c(c4)OCO5)c2cc1OC)C(=O)OC3 (stereo not drawn) [PHY-42] the “effect of acetal variation” value [1] was “well tolerated”, the pIC50 [3] was 6.42 and the pIC50 [4] was 8.70.
